Entries after “also recorded” stand apart in the source; their conditions may differ.
What was measured:
beagle dogs [1] = test: Alternative dosing study in dogs: total plasma cholesterol levels; assay type: in vivo
Protocol: (§1) The objective of the study was to determine the effects of oral administration of Compound 2 once-daily for 14 days followed by alternate day dosing for 14 days on plasma cholesterol levels and indicators of thyroid function in beagle dogs. Compound 2 was formulated with Lutrol F68 NF (Poloxomer 188) and carboxymethylcellulose (CMC; sodium salt/high viscosity) and was administered as a suspension in 0.5% CMC/1% Lutrol in deionized water. Twelve beagle dogs (9-15 kg) were randomized into 6 dosing groups (1 male and 1 female/group) and gavaged once-daily with a 0.5% CMC/1% Lutrol F68 suspension of Compound 2 at doses of […] or with vehicle for 14 days. At the end of the treatment cycle (Cycle 1), the dogs were washed out for 4 weeks and then entered into a second 14-day treatment cycle. Cycle 2 employed the same dosing paradigm as Cycle 1, but animals were randomized to Cycle 2 in such a way that the combined dosing groups from the two cycles consisted of 4 different animals (2 males, 2 females) each. At the conclusion of Cycle 2, dosing was continued on alternate days for an additional 14-day period (Cycle 2 Extension). Blood samples were collected at baseline and appropriate time intervals thereafter and analyzed for total plasma cholesterol levels, serum levels of total T4 (tT4), free T4 (fT4), total T3 (tT3), free T3 (fT3), and thyroid stimulating hormone (TSH).

beagle dogs [2] = test: Alternative dosing study in dogs: indicators of thyroid function (serum tT4, fT4, tT3, fT3, TSH); assay type: in vivo
Protocol: as §1

[3] = Previously determined no observable adverse effect level (NOAEL) and exposure at it; settings: in vivo
Protocol: (§2) The maximum cumulative weekly dose will not exceed 40 mg in this current clinical study. […] The projected systemic exposure (AUC0-168 hr [i.e., exposure during one week]) of the active metabolite at the 40 mg once weekly dose is 5570 ng*hr/mL. […] Projected exposures in humans receiving 40 mg once weekly is therefore estimated to be about 3-fold lower than exposures at the previously determined 5 mg/kg/day no observable adverse effect level (NOAEL).

[4] = tested on: patients with primary hypercholesterolemia and non-alcoholic fatty liver disease; test: Phase 1b study: LDL-C and triglycerides over 4-week treatment period; assay type: in vivo, humans; settings: 5 mg daily and up to 40 mg once weekly
Protocol: A phase 1b, randomized, double-blind, placebo-controlled, study is carried out to assess the efficacy, safety, and tolerability of Compound 1, administered for 12 weeks followed by a 4-week off-drug phase, in patients with primary hypercholesterolemia and non-alcoholic fatty liver disease.
as §2
Approximately 32 subjects are enrolled and randomly assigned in a 6:2 ratio (Compound 1:placebo) to one of the following treatment groups: (1) 5 mg Compound 1 or Placebo once daily (2) 20 mg Compound 1 or Placebo once weekly (3) 40 mg Compound 1 or Placebo once weekly (4) 10 mg Compound 1 or Placebo every other day The primary endpoint is the percent change in LDL-C from the baseline visit to Day 29. Either a 20% decrease in LDL-C or a lowering of LDL-C to within the normal range is considered clinically meaningful. Subjects are also monitored for adverse effects and/or clinically relevant changes in health status or results from laboratory analyses. […]

[5] = 0.3 mg/kg/day, once-daily oral, 14 days
[6] = 10 mg/kg/day (highest dose), once-daily oral, 14 days
[7] = alternate day dosing after once-daily treatment

Row | SMILES | effects on total plasma cholesterol levels (beagle dogs [1]; 0.1 mg/kg/day (lowest dose), once-daily oral) | average reduction of total plasma cholesterol levels on Day 15 (beagle dogs [1]; [5]) [mg/dL] | average reduction of total plasma cholesterol levels on Day 15 from baseline (beagle dogs [1]; [5]) [%] | average reduction of total plasma cholesterol levels on Day 15 (beagle dogs [1]; [6]) [mg/dL] | average reduction of total plasma cholesterol levels on Day 15 from baseline (beagle dogs [1]; [6]) [%] | total plasma cholesterol levels during alternate day dosing (beagle dogs [1]; Cycle 2 Extension, alternate day dosing for 14 days after 14 days once-daily) | reductions of average total plasma cholesterol levels from baseline (beagle dogs [1]; once-daily oral, 14 days, 0.1-10 mg/kg) | levels of fT4 during Cycle 2 Extension (beagle dogs [2]; [7]) | levels of tT4 during Cycle 2 Extension (beagle dogs [2]; [7]) | recovery of TSH levels during Cycle 2 Extension (beagle dogs [2]; [7]) | recovery of fT3 levels during Cycle 2 Extension (beagle dogs [2]; [7]) | effects on serum TSH levels on Day 8 (beagle dogs [2]; once-daily treatment, Day 8) | TSH levels reduced from baseline on Day 15 (beagle dogs [2]; once-daily treatment, Day 15, non-dose-dependent) | changes in tT3 levels relative to baseline levels (beagle dogs [2]; once-daily treatment, compared with vehicle-treated group) | reductions of serum tT4 from baseline levels (beagle dogs [2]; once-daily treatment, dose-dependent, across dose groups) | reductions of fT4 from baseline levels (beagle dogs [2]; once-daily treatment, dose-related, across dose groups) | reductions of fT3 from baseline levels (beagle dogs [2]; once-daily treatment, non-dose-dependent, across dose groups) | NOAEL [3] [mg/kg/day] | LDL-C [4] | triglycerides [4]
1 | Cc1cc(OC[P@]2(=O)OC[C@@H](c3cccc(Cl)c3)CO2)cc(C)c1Cc1ccc(O)c(C(C)C)c1 [Compound 2] | minimal effects | -28 | ~22 | -71 | ~47 | remained reduced relative to vehicle-treated animals to a similar or greater extent than observed after once-daily dosing; also recorded: did not compromise cholesterol lowering efficacy | up to 47% | gradually recovered to levels that approached those of vehicle-treated animals | gradually recovered to levels that approached those of vehicle-treated animals | more variable recovery | more variable recovery | variable, with full suppression in some animals and up to 4-fold elevations in others | 6-27% | no meaningful changes; also recorded: unaffected | 20-54% | 8-39% | 15-32% | – | – | –
2 | Cc1cc(OCP(=O)(OCOC(=O)C(C)(C)C)OCOC(=O)C(C)(C)C)cc(C)c1Cc1ccc(O)c(Cc2ccccc2)c1 [Compound 1] | – | – | – | – | – | – | – | – | – | – | – | – | – | – | – | – | – | 5 | dose and/or schedule dependent decreases | dose and/or schedule dependent decreases

Reference: patent US20190255080A1, “METHOD OF REDUCING THYROID-ASSOCIATED SIDE EFFECTS” (Viking Therapeutics, Inc., priority 2016, published 2019)
